Patent publication US20040102444A1, “Method for delivering drugs to the retina” (priority 2002, published 2004)

Experiments:
PDGF receptors = assay: cellular autophosphorylation assay, transfected Chinese hamster ovary cells; assay type: cell-based
Method: (§1) In vivo activity requires drugs to enter cells and therefore agents are tested in cellular autophosphorylation assays, using Chinese hamster ovary cells transfected with one of several RTK genes.

[1] = tested on: other receptors tested including VEGF receptors; assay: as above
Method: as §1

[2] = tested on: other RTKs including VEGF receptors; assay: standard tyrosine kinase assay, other RTKs; assay type: biochemical
c-Kit = c-Kit (Homo sapiens, UniProt P10721); settings: transfected Chinese hamster ovary cells
Chain of c-Kit (P10721 26-976): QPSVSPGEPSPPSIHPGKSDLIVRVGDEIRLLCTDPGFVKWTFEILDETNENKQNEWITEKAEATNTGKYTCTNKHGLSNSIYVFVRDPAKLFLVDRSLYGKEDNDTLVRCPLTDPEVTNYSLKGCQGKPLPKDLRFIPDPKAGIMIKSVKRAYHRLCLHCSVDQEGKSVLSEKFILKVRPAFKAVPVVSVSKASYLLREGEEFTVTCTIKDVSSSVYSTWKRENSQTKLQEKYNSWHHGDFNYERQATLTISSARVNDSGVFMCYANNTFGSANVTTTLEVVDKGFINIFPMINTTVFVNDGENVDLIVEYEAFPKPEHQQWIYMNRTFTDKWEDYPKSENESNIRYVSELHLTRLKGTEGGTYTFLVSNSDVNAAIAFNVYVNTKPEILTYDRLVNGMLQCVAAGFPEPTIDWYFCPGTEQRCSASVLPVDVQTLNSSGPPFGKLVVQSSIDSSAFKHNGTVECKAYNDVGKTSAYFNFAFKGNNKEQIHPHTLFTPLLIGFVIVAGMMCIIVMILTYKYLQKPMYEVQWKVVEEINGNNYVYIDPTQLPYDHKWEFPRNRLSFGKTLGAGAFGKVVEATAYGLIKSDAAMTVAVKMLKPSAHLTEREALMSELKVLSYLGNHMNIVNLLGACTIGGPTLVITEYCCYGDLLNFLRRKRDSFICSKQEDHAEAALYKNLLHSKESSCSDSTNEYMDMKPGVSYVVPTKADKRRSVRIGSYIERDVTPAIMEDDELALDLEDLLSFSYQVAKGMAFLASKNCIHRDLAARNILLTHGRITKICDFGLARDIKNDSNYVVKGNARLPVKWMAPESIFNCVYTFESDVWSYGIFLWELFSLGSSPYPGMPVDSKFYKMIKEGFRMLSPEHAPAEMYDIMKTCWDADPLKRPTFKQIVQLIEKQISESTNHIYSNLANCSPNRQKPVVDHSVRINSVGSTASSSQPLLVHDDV

insulin receptor = insulin receptor (Homo sapiens, UniProt P06213); assay: cellular autophosphorylation assay, transfected Chinese hamster ovary cells
Chain of insulin receptor (P06213 28-1382, species assumed): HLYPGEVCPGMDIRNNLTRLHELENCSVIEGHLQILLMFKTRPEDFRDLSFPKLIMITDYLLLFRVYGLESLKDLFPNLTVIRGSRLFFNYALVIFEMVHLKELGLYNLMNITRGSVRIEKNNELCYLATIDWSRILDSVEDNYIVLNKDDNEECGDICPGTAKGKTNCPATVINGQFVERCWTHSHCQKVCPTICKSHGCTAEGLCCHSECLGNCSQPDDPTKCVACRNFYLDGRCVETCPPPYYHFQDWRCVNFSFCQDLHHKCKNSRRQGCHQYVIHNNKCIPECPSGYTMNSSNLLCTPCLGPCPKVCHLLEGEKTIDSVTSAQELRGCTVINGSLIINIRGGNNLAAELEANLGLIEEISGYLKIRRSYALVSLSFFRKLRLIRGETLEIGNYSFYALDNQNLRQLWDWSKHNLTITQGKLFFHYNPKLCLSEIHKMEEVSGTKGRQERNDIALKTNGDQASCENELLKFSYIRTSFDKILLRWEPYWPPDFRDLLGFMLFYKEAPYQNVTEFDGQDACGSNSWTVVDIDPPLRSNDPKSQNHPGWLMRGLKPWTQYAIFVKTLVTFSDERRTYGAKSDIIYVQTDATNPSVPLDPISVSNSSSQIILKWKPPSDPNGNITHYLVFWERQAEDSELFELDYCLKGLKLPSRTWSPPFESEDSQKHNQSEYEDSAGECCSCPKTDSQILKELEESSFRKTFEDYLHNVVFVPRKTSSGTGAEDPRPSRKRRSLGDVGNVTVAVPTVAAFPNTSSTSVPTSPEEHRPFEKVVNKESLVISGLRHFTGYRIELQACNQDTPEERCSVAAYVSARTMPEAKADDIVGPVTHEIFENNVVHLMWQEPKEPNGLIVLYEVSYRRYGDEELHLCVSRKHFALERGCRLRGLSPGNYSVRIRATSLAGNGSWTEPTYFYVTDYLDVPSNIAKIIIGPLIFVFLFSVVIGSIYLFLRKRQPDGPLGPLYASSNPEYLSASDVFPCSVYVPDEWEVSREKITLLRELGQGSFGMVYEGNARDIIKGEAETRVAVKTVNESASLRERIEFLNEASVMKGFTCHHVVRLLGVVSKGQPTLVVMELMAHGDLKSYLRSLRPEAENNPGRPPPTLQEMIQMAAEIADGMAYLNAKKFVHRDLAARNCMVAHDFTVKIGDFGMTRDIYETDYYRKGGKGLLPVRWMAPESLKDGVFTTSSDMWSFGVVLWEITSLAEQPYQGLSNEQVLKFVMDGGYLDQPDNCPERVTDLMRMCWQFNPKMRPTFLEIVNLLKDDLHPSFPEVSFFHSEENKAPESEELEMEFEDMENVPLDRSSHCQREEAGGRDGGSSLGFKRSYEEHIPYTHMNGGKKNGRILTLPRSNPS
Method: as §1

VEGF receptors = assay: as above
Method: as §1

c-erbB2 = c-erbB2 (Homo sapiens, UniProt P04626); assay: as above
Chain of c-erbB2 (P04626 23-1255): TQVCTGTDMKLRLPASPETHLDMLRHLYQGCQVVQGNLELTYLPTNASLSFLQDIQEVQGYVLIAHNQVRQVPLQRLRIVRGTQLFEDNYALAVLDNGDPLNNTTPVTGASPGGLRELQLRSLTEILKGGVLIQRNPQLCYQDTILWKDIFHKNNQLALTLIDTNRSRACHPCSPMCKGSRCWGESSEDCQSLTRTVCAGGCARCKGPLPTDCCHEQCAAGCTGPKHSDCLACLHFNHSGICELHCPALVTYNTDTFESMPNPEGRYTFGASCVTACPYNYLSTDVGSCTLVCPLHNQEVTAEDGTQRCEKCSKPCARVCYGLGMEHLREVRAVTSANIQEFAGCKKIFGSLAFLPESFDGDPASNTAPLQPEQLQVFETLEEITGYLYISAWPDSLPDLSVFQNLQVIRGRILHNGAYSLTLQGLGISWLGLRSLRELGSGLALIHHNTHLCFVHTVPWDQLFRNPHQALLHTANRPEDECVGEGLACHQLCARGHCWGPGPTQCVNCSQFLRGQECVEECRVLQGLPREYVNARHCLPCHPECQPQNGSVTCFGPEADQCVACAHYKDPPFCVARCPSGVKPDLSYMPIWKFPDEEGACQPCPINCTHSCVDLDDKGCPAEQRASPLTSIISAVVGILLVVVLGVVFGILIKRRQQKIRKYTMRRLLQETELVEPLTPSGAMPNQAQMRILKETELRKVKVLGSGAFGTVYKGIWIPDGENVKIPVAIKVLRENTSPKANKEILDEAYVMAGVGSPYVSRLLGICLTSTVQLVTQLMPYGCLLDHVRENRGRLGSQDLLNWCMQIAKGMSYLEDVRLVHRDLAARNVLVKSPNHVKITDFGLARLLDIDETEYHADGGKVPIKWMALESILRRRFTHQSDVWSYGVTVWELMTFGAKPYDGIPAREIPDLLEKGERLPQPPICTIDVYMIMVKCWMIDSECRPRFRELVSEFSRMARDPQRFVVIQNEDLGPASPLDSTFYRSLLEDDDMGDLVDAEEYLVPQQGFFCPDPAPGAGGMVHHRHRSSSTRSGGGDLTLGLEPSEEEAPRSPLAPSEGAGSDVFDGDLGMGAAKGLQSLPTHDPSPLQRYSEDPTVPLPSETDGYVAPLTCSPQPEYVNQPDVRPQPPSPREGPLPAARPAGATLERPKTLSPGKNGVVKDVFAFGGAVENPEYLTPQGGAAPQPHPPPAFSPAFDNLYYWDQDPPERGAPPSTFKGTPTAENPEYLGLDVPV
Method: as §1

C57BL/6 mice = assay: VEGF-induced BRB breakdown measured with [3H]mannitol as tracer after topical administration; assay type: in vivo; settings: suspension topically in one eye twice a day for 3 days prior to intraocular injection of VEGF
Method: Intraocular injections are performed with a Harvard pump microinjection apparatus and pulled glass micropipets. Each micropipet is calibrated to deliver 1 μL of vehicle upon depression of a foot switch. Mice are anesthetized with 25 mg/kg of ketamine and 4 mg/kg of xylazine, pupils are dilated with 1% tropicamide. Under a dissecting microscope, the sharpened tip of a micropipet is passed through the sclera just behind the limbus into the vitreous cavity, and the foot switch is depressed and 1 μL of 10^−6 M human VEGF (R&D Systems, Minneapolis, Minn.) is injected.
Six or 24 hours after intraocular injections, mice are given an intraperitoneal injection of 1 μCi/g body weight of [^3H]mannitol (New England Nuclear, Boston, Mass.). After one hour, mice are sacrificed and eyes are removed. The cornea and lens are removed and the entire retina is carefully dissected from the eyecup and placed within pre-weighed scintillation vials. […] All liquid is removed from the vials and remaining droplets are allowed to evaporate over 20 minutes. The vials are weighed and the tissue weights are recorded. One mL of NCSII solubilizing solution (Amersham, Chicago, Ill.) is added to each vial and the vials are incubated overnight in a 50° C. water bath. The solubilized tissue is brought to RT and decolorized with 20% benzoyl peroxide in toluene in a 50° C. water bath. […]

Flt-1 = molecular target: T1, Flt-1 (Homo sapiens, UniProt P17948); assay: standard tyrosine kinase assay: phosphorylation of poly(GluTyr) by GST-fusion kinase domain; assay type: biochemical
T1 construct: GST-fusion proteins of the kinase domains of several tyrosine kinase receptors; GST
T1 sequence (P17948 827-1158 limits assumed): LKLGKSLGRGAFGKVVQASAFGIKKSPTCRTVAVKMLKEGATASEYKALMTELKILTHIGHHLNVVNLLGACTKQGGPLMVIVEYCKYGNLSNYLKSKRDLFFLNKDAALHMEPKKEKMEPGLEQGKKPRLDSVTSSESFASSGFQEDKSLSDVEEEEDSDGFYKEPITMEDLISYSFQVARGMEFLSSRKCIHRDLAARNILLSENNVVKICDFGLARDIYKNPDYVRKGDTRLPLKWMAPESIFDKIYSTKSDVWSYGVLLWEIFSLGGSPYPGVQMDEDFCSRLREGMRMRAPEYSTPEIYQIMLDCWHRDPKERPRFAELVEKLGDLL

Structure (SMILES) | inhibition of autophosphorylation of PDGF receptors (PDGF receptors) | inhibition of autophosphorylation of other receptors tested including VEGF receptors [1] | inhibitory activity of other RTKs including VEGF receptors [2] | inhibition of autophosphorylation of c-Kit (c-Kit) | inhibition of autophosphorylation of insulin receptor (insulin receptor) | inhibition of autophosphorylation of VEGF receptors (VEGF receptors) | inhibition of autophosphorylation of c-erbB2 (c-erbB2) | RRLR compared to contralateral eyes in the same mice (C57BL/6 mice) | inhibition of phosphorylation by the kinase domain of human VEGF receptor 1 (Flt-1)
Cc1ccc(NC(=O)c2ccc(CN3CCN(C)CC3)cc2)cc1Nc1nccc(-c2cccnc2)n1 [CGP 57 148] | potent inhibitors | poor inhibitors | little or no inhibitory activity | – | – | – | – | – | –
Cc1ccc(NC(=O)c2ccccc2)cc1Nc1nccc(-c2cccnc2)n1 [CGP 53 716] | potent inhibitors | poor inhibitors | little or no inhibitory activity | – | – | – | – | – | –
Clc1ccc(Nc2nnc(Cc3ccncc3)c3ccccc23)cc1 [PTK 787] | inhibits autophosphorylation | – | – | inhibits autophosphorylation | poor inhibitor | inhibits autophosphorylation | poor inhibitor | not a significant difference | good inhibitor
